Results: article PMC5522529, “Mechanisms of Paradoxical Activation of AMPK by the Kinase Inhibitors SU6656 and Sorafenib” (Cell Chemical Biology, 2017)

Experiments:
Type in all cases: cell-based
AMPK-α1 AA mutant = molecular target: T1, AMPK-α1 AA mutant (Homo sapiens, UniProt Q13131, K40A/K42A); experiment: AMPK activity of FLAG-tagged AMPK-α1 K40A/K42A (AA) mutant expressed in HEK293 cells; settings: AA mutant FLAG-α1; same concentrations, 1 hr
T1 construct: Plasmid encoding full-length human AMPK-α1; expressed in transfected cells; host or cells: HEK293
T1 sequence (Q13131 whole entry K40A/K42A): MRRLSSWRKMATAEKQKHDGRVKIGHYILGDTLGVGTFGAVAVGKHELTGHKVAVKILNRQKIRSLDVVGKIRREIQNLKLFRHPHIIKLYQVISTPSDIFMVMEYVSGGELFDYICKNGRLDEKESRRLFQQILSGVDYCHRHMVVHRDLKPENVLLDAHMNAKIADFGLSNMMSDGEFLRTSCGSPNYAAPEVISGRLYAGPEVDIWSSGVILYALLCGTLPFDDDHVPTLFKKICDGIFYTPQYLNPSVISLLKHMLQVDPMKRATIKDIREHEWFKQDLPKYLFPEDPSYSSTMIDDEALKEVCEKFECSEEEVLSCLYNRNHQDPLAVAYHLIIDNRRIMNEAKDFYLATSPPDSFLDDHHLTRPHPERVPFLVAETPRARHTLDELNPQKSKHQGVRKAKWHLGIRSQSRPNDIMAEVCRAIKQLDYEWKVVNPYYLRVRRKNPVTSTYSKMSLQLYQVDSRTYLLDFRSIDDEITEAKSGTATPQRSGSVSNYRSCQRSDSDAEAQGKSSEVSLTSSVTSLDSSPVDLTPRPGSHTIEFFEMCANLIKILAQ
T1 sequence (P54619 whole entry partner): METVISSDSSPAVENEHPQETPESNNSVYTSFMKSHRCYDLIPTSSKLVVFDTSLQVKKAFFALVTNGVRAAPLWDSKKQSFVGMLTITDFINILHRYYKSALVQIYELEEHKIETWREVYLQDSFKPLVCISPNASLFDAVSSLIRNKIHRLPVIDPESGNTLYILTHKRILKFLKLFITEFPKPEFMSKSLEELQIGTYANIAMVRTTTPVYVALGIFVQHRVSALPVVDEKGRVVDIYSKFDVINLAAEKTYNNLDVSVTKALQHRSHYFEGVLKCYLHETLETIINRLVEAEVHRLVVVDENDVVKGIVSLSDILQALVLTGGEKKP
Description: (§1) (B) Western blotting of the same preparations as in (A). […] (D) Allosteric activation of WT and mutant α1β1γ1 complexes by MT 63-78, curve fitting as for (C). […] (E) Allosteric activation of WT and mutant α1β1γ1 complexes by AMP. Data were fitted to the equation for activation/inactivation by AMP ([Gowans et al., 2013]). […] (F) Activation of WT and AA mutant by various AMPK activators in HEK293 cells. […] FLAG-tagged complexes were isolated by immunoprecipitation and AMPK activity determined (mean ± SEM, n = 2).
(§2) We next expressed the FLAG-tagged WT or AA mutant of AMPK-α1 by transient transfection in HEK293 cells, treated with various agents, and measured AMPK activity in anti-FLAG immunoprecipitates. In Figure 4F, the results are expressed as absolute activities and are accompanied by blots showing Thr172 phosphorylation.

AMPK-α1 (WT) = molecular target: T2, AMPK-α1 (WT) (Homo sapiens, UniProt Q13131); experiment: AMPK activity of FLAG-tagged AMPK-α1 (WT) expressed in HEK293 cells; settings: WT FLAG-α1; A769662 300 μM, berberine 300 μM, phenformin 10 mM, troglitazone 100 μM, oligomycin 1 μM, SU6656 100 μM, 1 hr
T2 construct: we expressed FLAG-tagged full-length AMPK-α1 either as the WT or the AT mutant; expressed in transfected cells; host or cells: HEK293
T2 sequence (Q13131 whole entry): as the sequence (Q13131 whole entry K40A/K42A) above, with A40K, A42K counted along it
T2 sequence (P54619 whole entry partner): as the sequence (P54619 whole entry partner) above
Description: as §1, §2
The α1-KD was precipitated using anti-FLAG and endogenous AMPK complexes using anti-α1 antibody, and activity determined. […] (B) Western blots (n = 2) using the indicated antibodies; samples from experiment in (A). (C) DNAs encoding FLAG-tagged AMPK-α1 (WT or AT mutant) were expressed by transient transfection in HEK293 cells, the cells treated with increasing concentrations of SU6656 for 1 hr, AMPK complexes precipitated with anti-FLAG, and activity measured.

[1] = molecular target: T3, α1 kinase domain (α1-KD, residues 1–312) (Homo sapiens, UniProt Q13131); experiment: Activity of FLAG-tagged α1 kinase domain expressed in HEK293 cells; settings: 1 hr
T3 construct: amplifying residues 1-312 with an N-terminal FLAG-tag; expressed in transfected cells; host or cells: HEK293 (transient transfection, pcDNA5 FRT)
T3 sequence (Q13131 1-312): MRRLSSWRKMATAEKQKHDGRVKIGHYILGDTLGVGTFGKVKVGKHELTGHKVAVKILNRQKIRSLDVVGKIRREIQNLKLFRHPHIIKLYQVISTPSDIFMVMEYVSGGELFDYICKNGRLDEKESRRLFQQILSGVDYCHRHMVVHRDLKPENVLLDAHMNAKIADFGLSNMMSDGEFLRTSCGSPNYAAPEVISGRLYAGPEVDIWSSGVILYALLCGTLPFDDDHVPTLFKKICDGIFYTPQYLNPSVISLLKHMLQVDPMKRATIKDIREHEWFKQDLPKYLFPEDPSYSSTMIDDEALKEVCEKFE
Description: (§3) We next expressed an FLAG-tagged α1 kinase domain (α1-KD, residues 1–312) by transient transfection in HEK293 cells, treated the cells with various AMPK activators, and then assayed both the expressed α1-KD (precipitated using anti-FLAG) and endogenous full-length α1 complexes (precipitated using anti-α1 antibodies recognizing an epitope outside the α1-KD). […] This was also observed with A23187, as expected since this ionophore increases intracellular Ca^2+ and activates the alternate upstream kinase CaMKK2.
(§4) The α1-KD was precipitated using anti-FLAG and endogenous AMPK complexes using anti-α1 antibody, and activity determined. Results (mean ± SD, n = 2) are expressed relative to activities in DMSO controls. (B) Western blots (n = 2) using the indicated antibodies; samples from experiment in (A). (C) DNAs encoding FLAG-tagged AMPK-α1 (WT or AT mutant) were expressed by transient transfection in HEK293 cells, the cells treated with increasing concentrations of SU6656 for 1 hr, AMPK complexes precipitated with anti-FLAG, and activity measured. Results (mean ± SD, n = 3) are expressed relative to the DMSO control. […] Results (mean ± SD, n = 3) are expressed relative to the DMSO control. **p < 0.01, ***p < 0.001, ****p < 0.0001, ^†††p < 0.001; ns, not significant.
A plasmid encoding the AMPK-α2 kinase domain (α2-KD) was made by amplifying residues 1-310 with 5' BamH1 and 3' Xho1 sites, the resulting PCR product was cloned into pGEX6P2. Point mutations were generated using the Quikchange II site-directed mutagenesis kit (Stratagene) and confirmed by DNA sequencing.

[2] = molecular target: T4, endogenous full-length α1 complexes (Homo sapiens, UniProt Q13131); experiment: Activity of endogenous full-length α1 complexes in HEK293 cells; settings: 1 hr
T4 construct: endogenous in cells
T4 sequence (Q13131 whole entry): as the sequence (Q13131 whole entry K40A/K42A) above, with A40K, A42K counted along it
T4 sequence (P54619 whole entry partner): as the sequence (P54619 whole entry partner) above
Description: as §3, §4

Compound	effect of AA mutation on AMPK activation (AMPK-α1 AA mutant)	AMPK activity and Thr172 phosphorylation (AMPK-α1 (WT))	kinase activity / Thr172 phosphorylation [1]	kinase activity / Thr172 phosphorylation [2]
CC[C@H]1/C=C/C=C/C[C@@H](C)[C@H](O)[C@@](C)(O)C(=O)[C@@H](C)[C@H](O)[C@@H](C)C(=O)[C@@H](C)[C@H](O)[C@@H](C)/C=C/C(=O)O[C@@H]2[C@H](C)[C@H](CC1)O[C@]1(CC[C@H](C)[C@H](C[C@@H](C)O)O1)[C@H]2C [oligomycin]	abolished	activated AMPK and caused Thr172 phosphorylation		
Cc1c(C)c2c(c(C)c1O)CCC(C)(COc1ccc(CC3SC(=O)NC3=O)cc1)O2 (stereo not drawn) [troglitazone]	abolished	activated AMPK and caused Thr172 phosphorylation	failed to activate or cause Thr172 phosphorylation	doing this with the endogenous complexes
